Measurements as given in patent US20260262643A1, “HERBICIDAL BENZOXAZINES” (FMC CORPORATION, priority 2022, published 2026).

Legend:
rice = assay: Test B flooded paddy test; assay type: in vivo, Oryza sativa; details: 250 g ai/ha, Flood, 13 days, 0 to 100 scale (0 no effect, 100 complete control)
How it was run: (§1)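 Two-leaf plants, 3 cm flood, in-water application, 13-day greenhouse hold, visual 0–100 rating vs untreated checks.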

pigweed, palmer [1] = assay: Test A preemergence; assay type: in vivo, Amaranthus palmeri
How it was run: (§2)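 Weeds and crops in loam–sand blend were sprayed preemergence onto soil or postemergence at 2–10 cm (one- to two-leaf stage). Test chemicals were in a non-phytotoxic solvent with surfactant. After 10 days in the greenhouse, injury was rated visually against untreated controls on a 0 (no effect) to 100 (complete control) scale.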

ragweed [2] = assay: Test A preemergence; assay type: in vivo, Ambrosia artemisiifolia
How it was run: as §2

ryegrass, Italian [3] = assay: Test A preemergence; assay type: in vivo, Lolium multiflorum
How it was run: as §2

blackgrass [4] = assay: Test A preemergence; assay type: in vivo, Alopecurus myosuroides
How it was run: as §2

kochia [5] = assay: Test A postemergence; assay type: in vivo, Bassia scoparia
How it was run: as §2

pigweed, palmer [6] = assay: Test A postemergence; assay type: in vivo, Amaranthus palmeri
How it was run: as §2

horseweed = assay: Test A postemergence; assay type: in vivo, Erigeron canadensis
How it was run: as §2

oat, wild [7] = assay: Test A preemergence; assay type: in vivo, Avena fatua
How it was run: as §2

blackgrass [8] = assay: Test A postemergence; assay type: in vivo, Alopecurus myosuroides
How it was run: as §2

corn [9] = assay: Test A postemergence; assay type: in vivo, Zea mays
How it was run: as §2

wheat [10] = assay: Test A preemergence; assay type: in vivo, Triticum aestivum
How it was run: as §2

sedge, umbrella = assay: Test B flooded paddy test; assay type: in vivo, Cyperus difformis; details: 250 g ai/ha, Flood, 13 days, 0 to 100 scale (0 no effect, 100 complete control)
How it was run: as §1

ryegrass, Italian [11] = assay: Test A postemergence; assay type: in vivo, Lolium multiflorum
How it was run: as §2

foxtail, giant [12] = assay: Test A postemergence; assay type: in vivo, Setaria faberi
How it was run: as §2

kochia [13] = assay: Test A preemergence; assay type: in vivo, Bassia scoparia
How it was run: as §2

goosegrass [14] = assay: Test A postemergence; assay type: in vivo, Eleusine indica
How it was run: as §2

barnyardgrass = assay: Test B flooded paddy test; assay type: in vivo, Echinochloa crus-galli; details: 250 g ai/ha, Flood, 13 days, 0 to 100 scale (0 no effect, 100 complete control)
How it was run: as §1

galium = assay: Test A postemergence; assay type: in vivo, Galium aparine
How it was run: as §2

goosegrass [15] = assay: Test A preemergence; assay type: in vivo, Eleusine indica
How it was run: as §2

corn [16] = assay: Test A preemergence; assay type: in vivo, Zea mays
How it was run: as §2

ducksalad = assay: Test B flooded paddy test; assay type: in vivo, Heteranthera limosa; details: 250 g ai/ha, Flood, 13 days, 0 to 100 scale (0 no effect, 100 complete control)
How it was run: as §1

ragweed [17] = assay: Test A postemergence; assay type: in vivo, Ambrosia artemisiifolia
How it was run: as §2

soybean [18] = assay: Test A postemergence; assay type: in vivo, Glycine max
How it was run: as §2

soybean [19] = assay: Test A preemergence; assay type: in vivo, Glycine max
How it was run: as §2

foxtail, giant [20] = assay: Test A preemergence; assay type: in vivo, Setaria faberi
How it was run: as §2

wheat [21] = assay: Test A postemergence; assay type: in vivo, Triticum aestivum
How it was run: as §2

oat, wild [22] = assay: Test A postemergence; assay type: in vivo, Avena fatua
How it was run: as §2

[23] = 125 g ai/ha, visual injury after 10 days, 0 to 100 scale, 0 is no effect, 100 is complete control
[24] = 500 g ai/ha, 0 to 100 scale (0 no effect, 100 complete control), 10 days
[25] = 125 g ai/ha, postemergence, 10 days, visual injury, 0 to 100 scale (0 no effect, 100 complete control)
[26] = 500 g ai/ha, postemergence, 10 days, visual injury, 0 to 100 scale (0 no effect, 100 complete control)
[27] = 500 g ai/ha, Postemergence, 0 to 100 scale

Cc1ccc(-n2cnc(C3CC3)n2)cc1C(=O)N1C[C@H](C)Oc2c(Cl)cccc21 [Compound 67]
Plant response rating, Rice (rice): 0 | Plant response rating, Pigweed, Palmer (pigweed, palmer [1]; [23]): 100 | Plant response rating, Pigweed, Palmer (pigweed, palmer [1]; [24]): 100 | Plant response rating, Ragweed (ragweed [2]; [23]): 0 | Plant response rating, Ragweed (ragweed [2]; [24]): 30 | Plant response rating, Ryegrass, Italian (ryegrass, Italian [3]; [23]): 100 | Plant response rating, Ryegrass, Italian (ryegrass, Italian [3]; [24]): 100 | Plant response rating, Blackgrass (blackgrass [4]; [23]): 80 | Plant response rating, Blackgrass (blackgrass [4]; [24]): 90 | Plant response rating, Kochia (kochia [5]; [25]): 70 | Plant response rating, Kochia (kochia [5]; [26]): 100 | Plant response rating, Pigweed, Palmer (pigweed, palmer [6]; [26]): 90 | Plant response rating, Horseweed (horseweed; [25]): 30 | Plant response rating, Horseweed (horseweed; [26]): 30 | Plant response rating, Oat, Wild (oat, wild [7]; [23]): 30 | Plant response rating, Oat, Wild (oat, wild [7]; [24]): 90 | Plant response rating, Blackgrass (blackgrass [8]; [25]): 70 | Plant response rating, Blackgrass (blackgrass [8]; [27]): 90 | Plant response rating, Corn (corn [9]; [25]): 60 | Plant response rating, Corn (corn [9]; [26]): 60 | Plant response rating, Wheat (wheat [10]; [23]): 10 | Plant response rating, Wheat (wheat [10]; [24]): 30 | Plant response rating, Sedge, Umbrella (sedge, umbrella): 75 | Plant response rating, Ryegrass, Italian (ryegrass, Italian [11]; [26]): 100 | Plant response rating, Foxtail, Giant (foxtail, giant [12]; [25]): 50 | Plant response rating, Foxtail, Giant (foxtail, giant [12]; [26]): 90 | Plant response rating, Kochia (kochia [13]; [23]): 80 | Plant response rating, Kochia (kochia [13]; [24]): 100 | Plant response rating, Goosegrass (goosegrass [14]; [25]): 30 | Plant response rating, Goosegrass (goosegrass [14]; [26]): 70 | Plant response rating, Barnyardgrass (barnyardgrass): 0 | Plant response rating, Galium (galium; [25]): 100 | Plant response rating, Galium (galium; [26]): 100 | Plant response rating, Goosegrass (goosegrass [15]; [23]): 100 | Plant response rating, Goosegrass (goosegrass [15]; [24]): 100 | Plant response rating, Corn (corn [16]; [23]): 40 | Plant response rating, Corn (corn [16]; [24]): 50 | Plant response rating, Ducksalad (ducksalad): 30 | Plant response rating, Ragweed (ragweed [17]; [26]): 70 | Plant response rating, Soybean (soybean [18]; [26]): 100 | Plant response rating, Soybean (soybean [19]; [23]): 50 | Plant response rating, Soybean (soybean [19]; [24]): 70 | Plant response rating, Foxtail, Giant (foxtail, giant [20]; [23]): 100 | Plant response rating, Foxtail, Giant (foxtail, giant [20]; [24]): 100 | Plant response rating, Wheat (wheat [21]; [26]): 30 | Plant response rating, Oat, Wild (oat, wild [22]; [26]): 60

CC1CN(C(=O)c2cc(-n3cncn3)ccc2F)c2cccc(Cl)c2O1 (stereo not drawn) [Compound 39]
Plant response rating, Rice (rice): 0 | Plant response rating, Pigweed, Palmer (pigweed, palmer [1]; [23]): 50 | Plant response rating, Pigweed, Palmer (pigweed, palmer [1]; [24]): 90 | Plant response rating, Ragweed (ragweed [2]; [23]): 10 | Plant response rating, Ragweed (ragweed [2]; [24]): 20 | Plant response rating, Ryegrass, Italian (ryegrass, Italian [3]; [23]): 40 | Plant response rating, Ryegrass, Italian (ryegrass, Italian [3]; [24]): 100 | Plant response rating, Blackgrass (blackgrass [4]; [23]): 0 | Plant response rating, Blackgrass (blackgrass [4]; [24]): 60 | Plant response rating, Kochia (kochia [5]; [25]): 30 | Plant response rating, Kochia (kochia [5]; [27]): 60 | Plant response rating, Pigweed, Palmer (pigweed, palmer [6]; [25]): 20 | Plant response rating, Pigweed, Palmer (pigweed, palmer [6]; [27]): 40 | Plant response rating, Horseweed (horseweed; [25]): 0 | Plant response rating, Horseweed (horseweed; [27]): 20 | Plant response rating, Oat, Wild (oat, wild [7]; [23]): 0 | Plant response rating, Oat, Wild (oat, wild [7]; [24]): 70 | Plant response rating, Blackgrass (blackgrass [8]; [25]): 60 | Plant response rating, Blackgrass (blackgrass [8]; [27]): 60 | Plant response rating, Corn (corn [9]; [25]): 0 | Plant response rating, Corn (corn [9]; [27]): 70 | Plant response rating, Wheat (wheat [10]; [23]): 0 | Plant response rating, Wheat (wheat [10]; [24]): 30 | Plant response rating, Sedge, Umbrella (sedge, umbrella): 0 | Plant response rating, Ryegrass, Italian (ryegrass, Italian [11]; [25]): 50 | Plant response rating, Ryegrass, Italian (ryegrass, Italian [11]; [27]): 100 | Plant response rating, Foxtail, Giant (foxtail, giant [12]; [25]): 10 | Plant response rating, Foxtail, Giant (foxtail, giant [12]; [27]): 90 | Plant response rating, Kochia (kochia [13]; [23]): 0 | Plant response rating, Kochia (kochia [13]; [24]): 50 | Plant response rating, Goosegrass (goosegrass [14]; [25]): 30 | Plant response rating, Goosegrass (goosegrass [14]; [27]): 60 | Plant response rating, Barnyardgrass (barnyardgrass): 0 | Plant response rating, Galium (galium; [25]): 90 | Plant response rating, Galium (galium; [27]): 100 | Plant response rating, Goosegrass (goosegrass [15]; [23]): 90 | Plant response rating, Goosegrass (goosegrass [15]; [24]): 100 | Plant response rating, Corn (corn [16]; [23]): 0 | Plant response rating, Corn (corn [16]; [24]): 30 | Plant response rating, Ducksalad (ducksalad): 0 | Plant response rating, Ragweed (ragweed [17]; [25]): 0 | Plant response rating, Ragweed (ragweed [17]; [27]): 60 | Plant response rating, Soybean (soybean [18]; [25]): 100 | Plant response rating, Soybean (soybean [18]; [27]): 100 | Plant response rating, Soybean (soybean [19]; [23]): 30 | Plant response rating, Soybean (soybean [19]; [24]): 70 | Plant response rating, Foxtail, Giant (foxtail, giant [20]; [23]): 90 | Plant response rating, Foxtail, Giant (foxtail, giant [20]; [24]): 100 | Plant response rating, Wheat (wheat [21]; [25]): 10 | Plant response rating, Wheat (wheat [21]; [27]): 50 | Plant response rating, Oat, Wild (oat, wild [22]; [25]): 40 | Plant response rating, Oat, Wild (oat, wild [22]; [27]): 90

Cc1cccc2c1O[C@@H](C)CN2C(=O)c1cccc(-n2cncn2)c1F [Compound 53]
Plant response rating, Rice (rice): 0 | Plant response rating, Pigweed, Palmer (pigweed, palmer [1]; [23]): 0 | Plant response rating, Pigweed, Palmer (pigweed, palmer [1]; [24]): 0 | Plant response rating, Ragweed (ragweed [2]; [23]): 0 | Plant response rating, Ragweed (ragweed [2]; [24]): 0 | Plant response rating, Ryegrass, Italian (ryegrass, Italian [3]; [23]): 30 | Plant response rating, Ryegrass, Italian (ryegrass, Italian [3]; [24]): 70 | Plant response rating, Blackgrass (blackgrass [4]; [23]): 0 | Plant response rating, Blackgrass (blackgrass [4]; [24]): 0 | Plant response rating, Kochia (kochia [5]; [25]): 0 | Plant response rating, Kochia (kochia [5]; [27]): 10 | Plant response rating, Pigweed, Palmer (pigweed, palmer [6]; [25]): 0 | Plant response rating, Pigweed, Palmer (pigweed, palmer [6]; [27]): 30 | Plant response rating, Horseweed (horseweed; [25]): 0 | Plant response rating, Horseweed (horseweed; [27]): 0 | Plant response rating, Oat, Wild (oat, wild [7]; [23]): 0 | Plant response rating, Oat, Wild (oat, wild [7]; [24]): 0 | Plant response rating, Blackgrass (blackgrass [8]; [25]): 0 | Plant response rating, Blackgrass (blackgrass [8]; [27]): 20 | Plant response rating, Corn (corn [9]; [25]): 0 | Plant response rating, Corn (corn [9]; [27]): 0 | Plant response rating, Wheat (wheat [10]; [23]): 0 | Plant response rating, Wheat (wheat [10]; [24]): 10 | Plant response rating, Sedge, Umbrella (sedge, umbrella): 0 | Plant response rating, Ryegrass, Italian (ryegrass, Italian [11]; [25]): 0 | Plant response rating, Ryegrass, Italian (ryegrass, Italian [11]; [27]): 0 | Plant response rating, Foxtail, Giant (foxtail, giant [12]; [25]): 0 | Plant response rating, Foxtail, Giant (foxtail, giant [12]; [27]): 10 | Plant response rating, Kochia (kochia [13]; [23]): 0 | Plant response rating, Kochia (kochia [13]; [24]): 20 | Plant response rating, Goosegrass (goosegrass [14]; [25]): 20 | Plant response rating, Goosegrass (goosegrass [14]; [27]): 40 | Plant response rating, Barnyardgrass (barnyardgrass): 0 | Plant response rating, Galium (galium; [25]): 0 | Plant response rating, Galium (galium; [27]): 0 | Plant response rating, Goosegrass (goosegrass [15]; [23]): 0 | Plant response rating, Goosegrass (goosegrass [15]; [24]): 40 | Plant response rating, Corn (corn [16]; [23]): 0 | Plant response rating, Corn (corn [16]; [24]): 0 | Plant response rating, Ducksalad (ducksalad): 0 | Plant response rating, Ragweed (ragweed [17]; [25]): 0 | Plant response rating, Ragweed (ragweed [17]; [27]): 0 | Plant response rating, Soybean (soybean [18]; [25]): 20 | Plant response rating, Soybean (soybean [18]; [27]): 50 | Plant response rating, Soybean (soybean [19]; [23]): 0 | Plant response rating, Soybean (soybean [19]; [24]): 0 | Plant response rating, Foxtail, Giant (foxtail, giant [20]; [23]): 0 | Plant response rating, Foxtail, Giant (foxtail, giant [20]; [24]): 0 | Plant response rating, Wheat (wheat [21]; [25]): 0 | Plant response rating, Wheat (wheat [21]; [27]): 0 | Plant response rating, Oat, Wild (oat, wild [22]; [25]): 0 | Plant response rating, Oat, Wild (oat, wild [22]; [27]): 0
